Data: article PMC9450014, “The evaluation of ADME and pharmacokinetic properties of decoquinate derivatives for the treatment of malaria” (Frontiers in Pharmacology, 2022)
In brackets after ≈: the same amount, converted by molar mass. Read-outs that look alike come from different tables or passages of the source. Values belong to the compound of their own block, whether it stands above or below them.

What was measured:
[1] = system: multidrug resistant Pf K1; set-up: method as in Beteck et al., 2018; details: ref Beteck et al., 2018; read-out: IC50 against multidrug resistant Pf K1; cited from earlier work
Pf NF54 = details: ref Beteck et al., cited from earlier work
[2] = pH range of 4–9; ref EFSA 2003; cited from earlier work
[3] = cited from earlier work
[4] = set-up: method as in Wang et al., 2014; details: dosed as a micro-suspension in mice; ref Wang et al., 2014; cited from earlier work
[5] = system: multidrug resistant Pf W2; set-up: method as in Beteck et al., 2018; details: ref Beteck et al., 2018; read-out: Activity against multidrug resistant Pf W2; cited from earlier work
Plasma stability = type: in vitro ADME; details: human plasma
Experimental: Stock solutions of compounds in DMSO were used to spike pooled human plasma. Samples were transferred in duplicate to 6 different wells of a 96-deep well plate. An aliquot of each sample was immediately quenched with ice cold acetonitrile containing the internal standard carbamazepine (0.1 μM), after which the plate was incubated in a water bath (37°C for 1 h). Aliquots of samples were removed at 5, 15, 40, 60, and 180 min and quenched with ice cold acetonitrile. After samples of the final time point were precipitated, the supernatant was transferred to a round bottom 96-well plate for analysis by LC-MS/MS using a reverse phase Gemini NX-C18 column (5 μM, 2.1 mm × 50 mm) with a Shimadzu HPLC coupled with an AB Sciex 3200 Q TRAP MS). The peak area ratios were used to calculate the amount of parent compound remaining and t1/2 in plasma, using the following equations.
% Parent remaining % Parent= Normalised peak area of sample at timepoint/Normalised peak area of sample at t=0 x 100
Predicted t1/2 t1/2= −0.693/λ Where λ is the slope of the Ln % parent remaining vs. time curve.

[6] = Lipophilicity, 1-octanol/phosphate buffer pH 7.4 (LogD7.4); type: physicochemical
Experimental: Stock solutions ([…]) of compounds were diluted to 100 μM in 96-well deep-well plate containing 1-octanol and phosphate buffer at pH 7.4. The plate was agitated on an orbital shaker at 750 rpm for 2 h. The organic and buffer layers of each well were transferred separately to a new analysis plate. The samples were analysed with the HPLC-diode array detection as described for kinetic solubility. Samples from both layers were analysed to determine LogD7.4 values.

Toxoplasma gondii (Tg) = system: Toxoplasma gondii (Tg); set-up: method as in Beteck et al., 2018; details: in vitro; ref Beteck et al., 2018; read-out: IC50 against Toxoplasma gondii; cited from earlier work
[7] = system: P. berghei sporozoite liver stages; details: abstract; no reference given; cited from earlier work
[8] = Metabolic stability in human liver microsomes; type: in vitro ADME
Experimental: (§1) A 5-point metabolic stability assay in human and mouse liver microsomes were performed in duplicate in 96-well plates. Stock solution of RMB005, −059 and 060 prepared in DMSO were individually incubated at 37°C in mouse and pooled human liver microsomes (0.4 mg/mL). An aliquot was removed at 0 min and quenched with ice cold acetonitrile containing the internal standard carbamazepine (0.1 μM). The cofactor NADPH was added, and the reactions were subsequently stopped at time points 5, 10, 30, and 60 min by removal of an aliquot and quenching with ice cold acetonitrile containing the internal standard. The supernatant of all samples were analysed via LC-MS/MS analysis (reverse phase Gemini NX-C18 column and Shimadzu HPLC and AB Sciex 3200 Q TRAP MS). Calculation of in vitro t1/2, intrinsic clearance rate (CLint) and predicted in vivo clearance (CLH) was carried out using the following equations ([Obach 1999]). CLintClint= 0.693/t1/2(min) ×Volume of incubation (μL)/microsomal protein (μg) Where t1/2 is calculated in minutes.
(§2) Predicted in vivo CLH CLH=Q × fu(plasma)×CLint/fu(mic)/Q+ fu(plasma)× CLint/fu(mic) Where Q is the hepatic blood flow of mouse (90 mL/min/kg) or human (20.7 mL/min/kg). Fu(plasma) is the unbound drug fraction in the plasma and fu(mic) is the unbound fraction in the microsomes.
(§3) The equation below was used in the case of RMB059 and -060, where protein-binding data were not available. CLH=Q × CLint/Q+ CLint

Neospora caninum = system: Neospora caninum; set-up: method as in Beteck et al., 2018; details: in vitro; ref Beteck et al., 2018; read-out: IC50 against Neospora caninum; cited from earlier work
[9] = Passive permeability, parallel artificial membrane permeation assay (PAMPA); type: in vitro ADME; details: donor pH 6.5, acceptor pH 7.4, 4 h, read-out: Permeability (LogPapp) (converted)
Experimental: A parallel artificial membrane permeation assay (PAMPA) was used to assess the passive permeability of compounds with a 96-well MultiScreen filter plate ([…] pore size, Millipore). The filter plate was precoated with 5% hexadecane in hexane. Stock solutions of compounds were diluted to 1 mM in a donor buffer (pH 6.5). Lucifer yellow was added to the apical wells of the precoated MultiScreen plate containing compound donor solution. The donor buffer solutions were spiked with each test compound (1 mM). The acceptor-buffer solution was prepared by adding 10 μL DMSO to 990 μL acceptor buffer (pH 7.4) and 250 μL were added to the basolateral (acceptor) wells. The donor plate was carefully inserted into the acceptor plate and incubated at room temperature for 4 h. After the incubation period, 50 μL of samples from the acceptor plate were transferred to a round bottom 96-well plate, together with 30 μL of donor buffer for matrix matching. Theoretical equilibrium samples for each test compound were prepared by adding 150 μL of donor solutions to 250 μL acceptor solutions and left at room temperature. These theoretical equilibrium samples represent complete transfer of the compound into the donor well. For the theoretical equilibrium samples, 80 μL were added to the analysis plate. Lastly, 160 μL of the internal standard carbamazepine (0.1 μM) was added to all acceptor and equilibrium samples. A portion of the sample containing Lucifer yellow was analyzed on a BioRad iMark^TM Microplate Absorbance Reader (BioRad, Hercules, CA, United States; excitation 490 nm, emission 510–570 nm) to determine that P app was within the acceptable range (<50 nm/s). Samples were analysed using reverse phase Gemini NX-C18 column (5 μM, 2.1 mm × 50 mm) with a Shimadzu HPLC coupled with an AB Sciex 3200 Q TRAP MS). The Papp for each compound was determined using. C=VD × VA/(VD+VA) ×A×t where VA = volume of donor compartment (0.15 cm^3), VD = volume of acceptor compartment (0.25 cm^3), A = accessible filter area (0.24 cm^2) and t = incubation time (14,400 s). […]

[10] = Metabolic stability in mouse liver microsomes; type: in vitro ADME
Experimental: as §1, §2, §3

[11] = set-up: method as in Tanner et al., 2019; details: ref Tanner et al., 2019; cited from earlier work
[12] = cited from earlier work; remark: listed apart in the source
[13] = 2018, read-out: IC50 against Pf NF54
[14] = *protein binding data not included

Compound: CCCCCCCCCCOc1cc2c(O)c(C(=O)OCC)cnc2cc1OCC [DQ, decoquinate]
- IC50 [1]: 64.9 nM
- IC50 (Pf NF54; Pf NF54, 2018, read-out: NF54 IC50 (line in the PK figures, in vitro IC50 in the discussion)): 26 nM
- IC50 (Pf NF54; 2016, read-out: In vitro activity against chloroquine-sensitive NF54 asexual parasites): 26.6 nM
- IC50 (Pf NF54; [13]): 26.6 nM
- Solubility in buffered aqueous solutions [2]: 0.024 µM (≈ 0.01 µg/mL)
- Solubility in buffered water [2]: 0.01 µg/mL (≈ 0.0239 µM)
- Octanol/water partition coefficient (Log Kow or LogP) ([3]; 25°C, pH 5, 7, or 9, ref Bampidis et al., 2019): ≥ 5.7
- LogD ([3]; ref Burger et al., 2018): 7.8
- Relative BA [4]: 6%

- Plasma stability (in words) (Plasma stability): high degree of lability
- half-life (Plasma stability; pooled plasma, 37°C): < 8 min
- logD at 2 h [6]: 2.9
- Estimated in vivo CLH HLM [8, 14]: 18.6* mL/min/kg
- CLint scaled ([8]; human, pooled liver microsomes, calculated from t1/2 in HLM, read-out: In vitro CLint HLM): 183 mL/min/kg
- half-life ([8]; pooled liver microsomes, human liver microsomes, NADPH, read-out: Degradation half-life HLM): 13.1 min
- Papp at 4 h, 1 mM [9]: 0.501 ×10⁻⁶ cm/s
- Estimated in vivo CLH MLM [10, 14]: 77.2* mL/min/kg
- half-life ([10]; mouse liver microsomes, NADPH, read-out: Degradation half-life MLM): 14.5 min
- CLint scaled ([10]; mouse, liver microsomes, calculated from t1/2 in MLM, read-out: In vitro CLint MLM): 541 mL/min/kg
Compound: CCCCCCCCCCOc1cc2c(OC(=O)N3CCN(S(C)(=O)=O)C3=O)c(C(=O)OCC)cnc2cc1OCC [RMB060]
- IC50 [1]: 1.3 nM
- IC50 (Pf NF54; [13]): 1.4 nM
- IC50 [5]: 1.1 nM
- IC50 (Toxoplasma gondii (Tg)): 1.1 nM
- Activities against P. berghei sporozoite liver stages (in words) [7]: sub-nanomolar
- IC50 (Neospora caninum): 0.6 nM

Compound: CCCCCCCCCCOc1cc2c(=O)c(C(=O)NCCOCCO)cn(CCO)c2cc1OCC [RMB073]
- Predicted kinetic solubility at pH 7.4 [11]: > 150 µM
- Plasma half-life [12]: greater than 6 h
